Source: US20260250250A1, “3-(SULPHONYL OR SULFONIMIDOYL)PROP-2-EN-1-YL]-2-OXO-1,2-DIHYDROPYRIDINE-3-CARBOXAMIDE DERIVATIVES” (Flinder Therapeutics B.V., priority 2022, published 2026)

What was measured:
[1] = target: T1, human E3 ubiquitin-protein ligase RNF31 (HOIP) (Homo sapiens, UniProt Q96EP0); experiment: Cell-free HTRF-based HOIP inhibition assay; format: biochemical
T1 sequence (Q96EP0 695-1072 limits assumed): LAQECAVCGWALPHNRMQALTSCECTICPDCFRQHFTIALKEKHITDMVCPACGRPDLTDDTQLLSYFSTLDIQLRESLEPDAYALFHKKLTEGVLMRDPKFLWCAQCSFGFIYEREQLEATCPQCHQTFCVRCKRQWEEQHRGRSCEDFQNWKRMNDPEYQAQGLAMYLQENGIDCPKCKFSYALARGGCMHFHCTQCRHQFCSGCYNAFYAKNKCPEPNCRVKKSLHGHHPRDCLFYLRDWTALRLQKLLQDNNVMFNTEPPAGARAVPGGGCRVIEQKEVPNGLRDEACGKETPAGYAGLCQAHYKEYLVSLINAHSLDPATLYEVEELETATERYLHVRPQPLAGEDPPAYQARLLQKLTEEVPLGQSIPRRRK
Method: This assay was performed in the following steps: • a) synthesis of recombinant fragment of human E3 ubiquitin-protein ligase RNF31 (HOIP), expressed with purity >90% in E. coli system (the protein was prepared as 1 mg/mL stock in a standard formulation); • b) incubation of the compounds in a typical concentration range: 100-0.005 μM, at a final DMSO conc. 1% with a mixture of HOIP and ubiquitin activating enzyme E1 at 25° C., for 1 h at 25° C.; • c) followed by addition of a ubiquitination solution including E2 and substrates (the reaction proceeds for 2.5 h at 25° C.); and • d) HTRF detection was performed using a PHERAstar FSX (BMG Labtech) plate reader (excitation at 337 nm, dual emissions at 665 and 620 nm).

[2] = test system: bladder carcinoma RT4 cell line; experiment: TNF-α-induced cytotoxicity assay (CellTiter-Glo viability); format: cell-based; details: Homo sapiens, RT-4, 72 h
Method: A viability assay, using bladder carcinoma RT4 cell line, was used for identifying the potential inhibitory effect of tested compounds on HOIP activity. The viability was determined by CellTiter-Glo Luminescent Cell Viability Assay (G7571, Promega) which measures the ability of generating a luminescent signal proportional to the amount of ATP present in living cells. The assay consists of a few steps: • a) the cells were routinely sub cultivated twice a week with standard complete growth medium composition; • b) cells were preparated for the assay by creating a cell suspension at the density of 0.05 mln cells/mL and dispensed into plates (ViewPlate-384, PerkinElmer) resulting in 1000 cells/well; • c) cells were stimulated with 1.25 ng/mL TNFα and with compounds and incubated for 72 h at 37° C. in the atmosphere with 5% CO2; and • d) for detection cytotoxicity was measured with CellTiter-Glo® Luminescent Cell Viability Assay based on the method described by the manufacturer.

Compound	IC50 [1] [µM]	IC50 [2] [µM]
CN(C)c1cccc(S(=N)(=O)/C=C/CNC(=O)c2cc3c([nH]c2=O)CCCC3)c1 (stereo not shown) [Example 165, N-[(2E)-3-{[3-(dimethylamino)phenyl](imino)oxo-λ^6-sulfanyl}prop-2-en-1-yl]-2-oxo-1,2,5,6,7,8-hexahydroquinoline-3-carboxamide]	≤ 1	≤ 1
N=S(=O)(/C=C/CNC(=O)c1cc2c([nH]c1=O)CCCC2)c1ccc(N2CCCCC2=O)cc1 (stereo not shown) [Example 176, N-[(2E)-3-[imino(oxo)[4-(2-oxopiperidin-1-yl)phenyl]-λ^6-sulfanyl]prop-2-en-1-yl]-2-oxo-1,2,5,6,7,8-hexahydroquinoline-3-carboxamide]	≤ 1	–
N=S(=O)(/C=C/CNC(=O)c1cc2c([nH]c1=O)CCCC2)c1ccc(-c2ccccc2)cc1 (stereo not shown) [Example 156, N-[(2E)-3-({[1,1′-biphenyl]-4-yl}(imino)oxo-λ^6-sulfanyl)prop-2-en-1-yl]-2-oxo-1,2,5,6,7,8-hexahydroquinoline-3-carboxamide]	≤ 0.1	≤ 1
O=C(NC/C=C/S(=O)(=O)c1ccccc1)c1cc2c([nH]c1=O)CCN(C(=O)CC13CC4CC(CC(C4)C1)C3)C2 [Example 106, 6-[2-(adamantan-1-yl)acetyl]-N-[(2E)-3-(benzenesulfonyl)prop-2-en-1-yl]-2-oxo-1,2,5,6,7,8-hexahydro-1,6-naphthyridine-3-carboxamide]	≤ 1	≤ 10
CN1CCCc2cc(S(=N)(=O)/C=C/CNC(=O)c3cc4c([nH]c3=O)CCCC4)ccc21 (stereo not shown) [Example 177, N-[(2E)-3-[imino(1-methyl-1,2,3,4-tetrahydroquinolin-6-yl)oxo-A*-sulfanyl]prop-2-en-1-yl]-2-oxo-1,2,5,6,7,8-hexahydroquinoline-3-carboxamide]	≤ 0.1	≤ 1
O=C(NC/C=C/S(=O)(=O)c1ccccc1Cl)c1cc(-c2ccccc2)c[nH]c1=O [Example 129, N-[(2E)-3-(2-chlorobenzenesulfonyl)prop-2-en-1-yl]-2-oxo-5-phenyl-1,2-dihydropyridine-3-carboxamide]	≤ 1	≤ 10
CC(=O)N1CCc2[nH]c(=O)c(C(=O)NC/C=C/S(=O)(=O)c3ccccc3)cc2C1 [Example 13, 6-acetyl-N-[(2E)-3-(benzenesulfonyl)prop-2-en-1-yl]-2-oxo-1,2,5,6,7,8-hexahydro-1,6-naphthyridine-3-carboxamide]	≤ 10	–
COc1ccc(S(=N)(=O)/C=C/CNC(=O)c2ccc[nH]c2=O)cc1F (stereo not shown) [Example 186, N-[(2E)-3-[(3-fluoro-4-methoxyphenyl)(imino)oxo-λ^6-sulfanyl]prop-2-en-1-yl]-2-oxo-1,2-dihydropyridine-3-carboxamide]	≤ 1	≤ 10
N=S(=O)(/C=C/CNC(=O)c1cc2c([nH]c1=O)CCCC2)c1ccc2c(c1)CCO2 (stereo not shown) [Example 167, N-[(2E)-3-[(2,3-dihydro-1-benzofuran-5-yl)(imino)oxo-λ^6-sulfanyl]Prop-2-en-1-yl]-2-oxo-1,2,5,6,7,8-hexahydroquinoline-3-carboxamide]	≤ 1	≤ 1
N=S(=O)(/C=C/CNC(=O)c1cc2c([nH]c1=O)CCCC2)c1ccc(N2CCOCC2)cc1 (stereo not shown) [Example 160, N-[(2E)-3-{imino[4-(morpholin-4-yl)phenyl]oxo-λ^6-sulfanyl}prop-2-en-1-yl]-2-oxo-1,2,5,6,7,8-hexahydroquinoline-3-carboxamide]	≤ 1	≤ 1
CC(C)S(=O)(=O)/C=C\CNC(=O)c1cc2c([nH]c1=O)CCCC2 [Example 20, 2-oxo-N-[(2Z)-3-(propane-2-sulfonyl)prop-2-en-1-yl]-1,2,5,6,7,8-hexahydroquinoline-3-carboxamide]	≤ 100	–
O=C(NC/C=C/S(=O)(=O)c1ccccc1)c1cc2c([nH]c1=O)CCN(C(=O)C1CCC(F)(F)CC1)C2 [Example 108, N-[(2E)-3-(benzenesulfonyl)prop-2-en-1-yl]-6-(4,4-difluorocyclohexanecarbonyl)-2-oxo-1,2,5,6,7,8-hexahydro-1,6-naphthyridine-3-carboxamide]	≤ 10	–
N#CC1(C(=O)N2CCc3[nH]c(=O)c(C(=O)NC/C=C/S(=O)(=O)c4ccccc4)cc3C2)CCC1 [Example 111, N-[(2E)-3-(benzenesulfonyl)prop-2-en-1-yl]-6-(1-cyanocyclobutanecarbonyl)-2-oxo-1,2,5,6,7,8-hexahydro-1,6-naphthyridine-3-carboxamide]	≤ 10	–
COc1ccc(S(=O)(=O)/C=C/CNC(=O)c2cc3c([nH]c2=O)CCCCC3)cc1F [Example 37, N-[(2E)-3-(3-fluoro-4-methoxybenzenesulfonyl)prop-2-en-1-yl]-2-oxo-1H,2H,5H,6H,7H,8H,9H-cyclohepta[b]pyridine-3-carboxamide]	≤ 10	–
O=C(NC/C=C/S(=O)(=O)C1CCCC1)c1cc2c([nH]c1=O)CCCC2 [Example 17, N-[(2E)-3-(cyclopentanesulfonyl)prop-2-en-1-yl]-2-oxo-1,2,5,6,7,8-hexahydroquinoline-3-carboxamide]	≤ 10	–
O=C(NC/C=C/S(=O)(=O)c1ccccc1)c1cc2c([nH]c1=O)CCN(C(=O)C1CC(F)(F)C1)C2 [Example 102, N-[(2E)-3-(benzenesulfonyl)prop-2-en-1-yl]-6-(3,3-difluorocyclobutanecarbonyl)-2-oxo-1,2,5,6,7,8-hexahydro-1,6-naphthyridine-3-carboxamide]	≤ 10	–
COCCC(=O)N1CCc2[nH]c(=O)c(C(=O)NC/C=C/S(=O)(=O)c3ccccc3)cc2C1 [Example 105, N-[(2E)-3-(benzenesulfonyl)prop-2-en-1-yl]-6-(3-methoxypropanoyl)-2-oxo-1,2,5,6,7,8-hexahydro-1,6-naphthyridine-3-carboxamide]	≤ 1	–
CS(=O)(=O)/C=C/CNC(=O)c1cc2c([nH]c1=O)CCCC2 [Example 15, N-[(2E)-3-methanesulfonylprop-2-en-1-yl]-2-oxo-1,2,5,6,7,8-hexahydroquinoline-3-carboxamide]	≤ 10	–
CC(/C=C/S(=O)(=O)c1ccccc1)NC(=O)c1cc2c([nH]c1=O)CCCC2 (stereo not shown) [Example 14, N-[(3E)-4-(benzenesulfonyl)but-3-en-2-yl]-2-oxo-1,2,5,6,7,8-hexahydroquinoline-3-carboxamide]	≤ 100	–
N=S(=O)(/C=C/CNC(=O)c1cc2c([nH]c1=O)CCCC2)Cc1ccccc1 (stereo not shown) [Example 157, N-[(2E)-3-[benzyl(imino)oxo-λ^6-sulfanyl]prop-2-en-1-yl]-2-oxo-1,2,5,6,7,8-hexahydroquinoline-3-carboxamide]	≤ 10	–
COC(C)(C)CC(=O)N1CCc2[nH]c(=O)c(C(=O)NC/C=C/S(=O)(=O)c3ccccc3)cc2C1 [Example 124, N-[(2E)-3-(benzenesulfonyl)prop-2-en-1-yl]-6-(3-methoxy-3-methylbutanoyl)-2-oxo-1,2,5,6,7,8-hexahydro-1,6-naphthyridine-3-carboxamide]	≤ 10	–
N=S(=O)(/C=C/CNC(=O)c1cc2c([nH]c1=O)CCCC2)c1ccc(N2CCCCC2)cc1 (stereo not shown) [Example 161, N-[(2E)-3-[imino(oxo)[4-(piperidin-1-yl)phenyl]-λ^6-sulfanyl]prop-2-en-1-yl]-2-oxo-1,2,5,6,7,8-hexahydroquinoline-3-carboxamide]	–	≤ 1
O=C(NC/C=C/S(=O)(=O)c1ccccc1)c1cc2c([nH]c1=O)CCN(C(=O)C1CCN(c3ccccc3)C1)C2 (stereo not shown) [Example 118, N-[(2E)-3-(benzenesulfonyl)prop-2-en-1-yl]-2-oxo-6-(1-phenylpyrrolidine-3-carbonyl)-1,2,5,6,7,8-hexahydro-1,6-naphthyridine-3-carboxamide]	≤ 1	–
CC(C)(C)S(=O)(=O)/C=C/CNC(=O)c1cc2c([nH]c1=O)CCCC2 [Example 23, N-[(2E)-3-(2-methylpropane-2-sulfonyl)prop-2-en-1-yl]-2-oxo-1,2,5,6,7,8-hexahydroquinoline-3-carboxamide]	≤ 100	–
CC(C)S(=O)(=O)/C=C/CNC(=O)c1cc2c([nH]c1=O)CCCC2 [Example 18, 2-oxo-N-[(2E)-3-(propane-2-sulfonyl)prop-2-en-1-yl]-1,2,5,6,7,8-hexahydroquinoline-3-carboxamide]	≤ 10	–
O=C(NC/C=C/S(=O)(=O)c1ccc(Cl)cc1)c1cc(-c2ccccc2)c[nH]c1=O [Example 130, N-[(2E)-3-(4-chlorobenzenesulfonyl)prop-2-en-1-yl]-2-oxo-5-phenyl-1,2-dihydropyridine-3-carboxamide]	≤ 10	–
